We go through three molecules from the NIST ThermoML archive (doi:10.1021/je100028s).

Numbers after ± are expanded uncertainties.

For the series the following is noted: Liquid; for mass density: 293.1 K, 101.33 kPa, Pycnometric method; for vapor or sublimation pressure: Closed cell (Static) method.

As for `OC1CCCCC1` [cyclohexanol], the mass density is 941.4 ± 0.9 kg/m3.
As for `C1CCCCC1` [cyclohexane], the mass density was determined as 778.2 ± 0.7 kg/m3. In addition, under “414 K”, the “vapor or sublimation pressure” value turned out to be 457.67 ± 21 kPa. The “vapor or sublimation pressure” value (423.4 K) came out at 555.25 ± 21 kPa. Moreover, the “vapor or sublimation pressure” value (433.7 K) is listed as 677.81 ± 21 kPa.
As to `O=C1CCCCC1` [cyclohexanone], the mass density amounted to 947.6 ± 0.9 kg/m3.

The term mass density denotes mass per unit of volume. One may read the vapor or sublimation pressure as the pressure of vapour in equilibrium with the condensed phase.
